The target of one test is T1, collagenase (type IV).
T1 construct: gene colG; known from the kit
The test can be described thus: fluorogenic EnzChek gelatinase/collagenase kit. Particulars: per kit instructions; positive control. The test is classed as biochemical. The text has this: fluorogenic EnzChek gelatinase/collagenase kit on collagenase (type IV)

The next test concerns the target T2, hyaluronidase.
T2 construct: gene SPAM1
Kind of test: hyaluronic acid turbidity, absorbance […] nm. Type of test: biochemical. To be noted: 37 °C; hyaluronic acid substrate pH 5.35; reference compound; printed interval does not contain the value.

For the molecule `O=C(O[C@@H]1Cc2c(O)cc(O)cc2O[C@@H]1c1cc(O)c(O)c(O)c1)c1cc(O)c(O)c(O)c1` [EGCG, epigallocatechin gallate], the Collagenase at collagenase (type IV) is on record as 4.8 (4.1–5.5) µg/mL. Moreover, the Hyaluronidase at hyaluronidase is on record as 119.1 (126.1–320.4) µg/mL.

The record behind these values is PMC7997182, “Unravelling the Dermatological Potential of the Brown Seaweed Carpomitra costata” (Marine Drugs, 2021).
